# Patent US20140171417A1, “TRICYCLIC COMPOUNDS” (NOVARTIS AG, priority 2012, published 2014)
# Target: T1, CFTR (Homo sapiens, UniProt P13569)
# T1 construct: expressed in transfected cells
# Test: IonWorks Quattro assay (CFTR Inhibitor Assay), whole-cell planar patch clamp
# Assay type: cell-based
# Details: inward current (−100 mV); CHO cells stably expressing WT-CFTR; CFTR activated by 10 μM forskolin; test compound incubated 10 min
# Description: CFTR activity can be quantified by electrophysiology methods, using the whole-cell configuration of the patch clamp technique (Hamill O, Marty A, Neher E, Sakmann B and Sigworth F. ‘Improved patch-clamp techniques for high resolution current recording from cells and cell-free membrane patches.’ Pflugers Archive 1981 391: 85-100). This assay directly measures the currents associated with chloride flow through CFTR channels whilst either maintaining or adjusting the transmembrane voltage. This assay can use either single glass micropipettes or parallel planar arrays to measure CFTR activity from native or recombinant cell systems. Currents measured using parallel planar arrays can be quantified using an appropriately equipped instrument such as the IonWorks Quattro (Molecular Devices Corporation, Sunnyvale, Calif.). The Quattro system can measure CFTR currents from either a single cell per recording well (HT configuration) or alternatively from a population of 64 cells per well (Population Patch Clamp PPC) (Finkel A, Wittel A, Yang N, Handran S, Hughes J, Costantin J. ‘Population patch clamp improves data consistency and success rates in the measurement of ionic currents.’ J Biomol Screen. 2006 August; 11 (5):488-96).
# Chinese hamster ovary (CHO) cells stably expressing WT-CFTR channels were used for the IonWorks Quattro experiments. Cells were maintained at 37° C. in 5% v/v CO2 at 100% humidity in MEM alpha medium supplemented with 10% (v/v) FCS, 100 U/mL Penicillin/Streptomycin, and 100 μg/L methotrexate. For experiments, cells were grown in 225 cm^2 tissue culture flasks until almost confluent. Cells were removed from the flask using trypsin-EDTA and resuspended in extracellular recording solution for immediate experimentation.
# Cells, at a density of 1.5-2 million per mL, were placed on the Quattro system, added to the planar patch plate and seals allowed to establish for 5-10 mins. After assessing seal resistances (typically >50 MΩ), whole-cell access was obtained by perforation with 100 μg/mL amphotericin B. Baseline currents were measured by a pre-compound scan obtained by application of a voltage ramp from −100 to +100 mV. CFTR was activated by the addition of 10 μM forskolin to each of the 384 wells of the patch plate. After 5 min incubation the post-compound 1 currents were measured, again by application of a voltage ramp from −100 to +100 mV. Test compounds, diluted from 10 mM stocks in DMSO in extracellular solution were then added to the patch plate and were incubated for a further 10 min. The post-compound 2 currents were measured by the application of the same voltage ramp from −100 to +100 mV. The inhibition of CFTR was determined from the difference in current between the forskolin addition (post-compound 1) and the test compound (post-compound 2). This was determined at both −100 mV and +100 mV which represents the inward and outward current respectively.
# Extracellular solution (ECS): 145 mM NaCl, 4 mM CsCl, 5 mM D-glucose, 10 mM TES, 1 mM CaCl2, 1 mM MgCl2, pH 7.4 NaOH
# Intracellular solution (ICS): 113 mM L-Aspartic acid, 113 mM CsOH, 27 mM CsCl, 1 mM NaCl, 1 mM MgCl2, 1 mM EGTA, 10 mM TES. pH 7.2 with CsOH. Filter sterilized before use.
# T1 sequence (P13569 whole entry): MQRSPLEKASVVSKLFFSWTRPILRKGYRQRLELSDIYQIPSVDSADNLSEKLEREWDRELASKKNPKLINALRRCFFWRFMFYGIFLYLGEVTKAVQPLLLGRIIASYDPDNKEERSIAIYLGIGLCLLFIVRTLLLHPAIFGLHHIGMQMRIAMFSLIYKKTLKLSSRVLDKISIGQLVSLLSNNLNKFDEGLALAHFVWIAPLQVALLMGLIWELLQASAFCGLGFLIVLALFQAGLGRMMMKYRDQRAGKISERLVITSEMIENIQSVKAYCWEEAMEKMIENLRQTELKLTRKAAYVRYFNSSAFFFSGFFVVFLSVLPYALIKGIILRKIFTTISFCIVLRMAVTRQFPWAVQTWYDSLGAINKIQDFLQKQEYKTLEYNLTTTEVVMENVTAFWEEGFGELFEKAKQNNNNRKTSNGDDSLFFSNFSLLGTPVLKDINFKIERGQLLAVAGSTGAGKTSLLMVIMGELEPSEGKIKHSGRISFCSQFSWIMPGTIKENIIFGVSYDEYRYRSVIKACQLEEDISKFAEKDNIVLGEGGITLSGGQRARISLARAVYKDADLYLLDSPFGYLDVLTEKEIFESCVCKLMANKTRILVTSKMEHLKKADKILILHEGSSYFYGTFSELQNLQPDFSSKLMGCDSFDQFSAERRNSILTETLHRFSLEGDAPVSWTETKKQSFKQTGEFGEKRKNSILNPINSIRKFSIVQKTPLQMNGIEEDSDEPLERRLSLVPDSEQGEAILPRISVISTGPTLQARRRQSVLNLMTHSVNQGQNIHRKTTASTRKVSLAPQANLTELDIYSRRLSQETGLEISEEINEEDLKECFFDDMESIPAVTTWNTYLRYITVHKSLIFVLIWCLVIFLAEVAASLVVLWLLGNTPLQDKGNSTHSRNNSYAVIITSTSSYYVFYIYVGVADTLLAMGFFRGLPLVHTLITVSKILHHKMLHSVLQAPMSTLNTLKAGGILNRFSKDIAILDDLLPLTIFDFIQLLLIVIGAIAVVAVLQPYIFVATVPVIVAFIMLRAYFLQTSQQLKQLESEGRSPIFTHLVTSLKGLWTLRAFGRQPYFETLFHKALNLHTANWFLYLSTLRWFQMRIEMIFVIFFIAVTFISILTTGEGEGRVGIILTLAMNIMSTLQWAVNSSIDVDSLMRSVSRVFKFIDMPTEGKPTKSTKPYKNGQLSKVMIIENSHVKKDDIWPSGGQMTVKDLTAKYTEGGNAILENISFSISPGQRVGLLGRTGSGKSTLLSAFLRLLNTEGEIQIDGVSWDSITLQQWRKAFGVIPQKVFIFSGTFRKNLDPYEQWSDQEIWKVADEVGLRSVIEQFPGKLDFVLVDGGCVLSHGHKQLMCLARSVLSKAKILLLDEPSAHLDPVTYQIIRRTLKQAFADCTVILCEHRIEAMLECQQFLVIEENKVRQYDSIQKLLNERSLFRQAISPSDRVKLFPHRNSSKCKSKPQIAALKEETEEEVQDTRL
row,Structure (SMILES),IC50
1,"Cn1c(=O)c2c(-c3ccccc3)n3c(c2n(C)c1=O)C(c1ccc(Cl)o1)SC(CO)C3 (single isomer, unassigned) [Example 12.a, 10-(5-chlorofuran-2-yl)-8-(hydroxymethyl)-1,3-dimethyl-5-phenyl-7,8-dihydro-1H-pyrimido[4′,5′:3,4]pyrrolo[2,1-c][1,4]thiazine-2,4(3H,10H)-dione]",0.2 µM
2,"Cc1ccc(C2SC[C@H](CN(C)C)n3c(-c4ccccc4)c4c(=O)n(C)c(=O)n(C)c4c32)o1 (single isomer, unassigned) [Example 2.1, 7-((dimethylamino)methyl)-1,3-dimethyl-10-(5-methylfuran-2-yl)-5-phenyl-7,8-dihydro-1H-pyrimido[4′,5′:3,4]pyrrolo[2,1-c][1,4]thiazine-2,4(3H,10H)-dione]",0.41 µM
3,"Cn1c(=O)c2c(-c3ccccc3)n3c(c2n(C)c1=O)C(c1cccc(F)c1F)CCC3 (racemic) [Example 6.1, 10-(2,3-Difluorophenyl)-1,3-dimethyl-5-phenyl-7,8,9,10-tetrahydropyrimido[4,5-a]indolizine-2,4(1H,3H)-dione]",27.6 µM
4,"Cn1c(=O)c2c(-c3ccccc3)n3c(c2n(C)c1=O)C(c1ccc(Cl)o1)SC(CO)C3 (single isomer, unassigned) [Example 12.b, 10-(5-chlorofuran-2-yl)-8-(hydroxymethyl)-1,3-dimethyl-5-phenyl-7,8-dihydro-1H-pyrimido[4′,5′:3,4]pyrrolo[2,1-c][1,4]thiazine-2,4(3H,10H)-dione]",0.54 µM
5,"CCOc1cccc(-c2c3c(=O)n(C)c(=O)n(C)c3c3n2CCSC3c2ccc(Cl)o2)c1 (single isomer, unassigned) [Example 15.12, 10-(5-Chlorofuran-2-yl)-5-(3-ethoxyphenyl)-1,3-dimethyl-7,8-dihydro-1H-pyrimido[4′,5′:3,4]pyrrolo[2,1-c][1,4]thiazine-2,4(3H,10H)-dione]",9.27 µM
6,"Cc1csc(-c2c3c(=O)n(C)c(=O)n(C)c3c3n2CCSC3c2ccc(Cl)o2)n1 (single isomer, unassigned) [Example 3.1.1, 10-(5-chlorofuran-2-yl)-1,3-dimethyl-5-(4-methylthiazol-2-yl)-7,8-dihydro-1H-pyrimido[4′,5′:3,4]pyrrolo[2,1-c][1,4]thiazine-2,4(3H,10H)-dione]",0.41 µM
7,"Cc1ccc(C2SCCn3c(-c4ccccc4)c4c(=O)n(C)c(=O)n(C)c4c32)s1 (racemic) [Example 1.10, 1,3-Dimethyl-10-(5-methylthiophen-2-yl)-5-phenyl-7,8-dihydro-1H-pyrimido[4′,5′:3,4]pyrrolo[2,1-c][1,4]thiazine-2,4(3H,10H)-dione]",8.08 µM
8,"Cn1c(=O)c2c(-c3nc(CO)cs3)n3c(c2n(C)c1=O)C(c1nc(Cl)cs1)CCC3 (single isomer, unassigned) [Example 13.1a, 10-(4-chlorothiazol-2-yl)-5-(4-(hydroxymethyl)thiazol-2-yl)-1,3-dimethyl-7,8,9,10-tetrahydropyrimido[4,5-a]indolizine-2,4(1H,3H)-dione]",0.1 µM
9,"Cn1c(=O)c2c(-c3cccc(F)c3)n3c(c2n(C)c1=O)[C@H](c1ccc(Cl)o1)S[C@@H](CO)C3 (single isomer, unassigned) [Example 12.1b, 10-(5-chlorofuran-2-yl)-5-(3-fluorophenyl)-8-(hydroxymethyl)-1,3-dimethyl-7,8-dihydro-1H-pyrimido[4′,5′:3,4]pyrrolo[2,1-c][1,4]thiazine-2,4(3H,10H)-dione]",0.18 µM
10,"Cc1csc(C2CCCn3c(-c4cccc(C#N)c4)c4c(=O)n(C)c(=O)n(C)c4c32)n1 (single isomer, unassigned) [Example 9.1, 3-(1,3-dimethyl-10-(4-methylthiazol-2-yl)-2,4-dioxo-1,2,3,4,7,8,9,10-octahydropyrimido[4,5-a]indolizin-5-yl)benzonitrile]",0.29 µM

# The remaining lines, values ahead:
row,IC50,Structure (SMILES)
1,0.24 µM,"Cc1nc(-c2c3c(=O)n(C)c(=O)n(C)c3c3n2C[C@H](CO)S[C@H]3c2ccc(Cl)o2)cs1 (single isomer, unassigned) [Example 17.2, 10-(5-Chlorofuran-2-yl)-8-(hydroxymethyl)-1,3-dimethyl-5-(2-methylthiazol-4-yl)-7,8-dihydro-1H-pyrimido[4′,5′:3,4]pyrrolo[2,1-c][1,4]thiazine-2,4(3H,10H)-dione]"
2,0.48 µM,"Cc1ccc(C2c3c4c(c(-c5cccc(F)c5)n3CCC2(F)F)c(=O)n(C)c(=O)n4C)o1 (racemic) [Example 18, 9,9-Difluoro-5-(3-fluorophenyl)-1,3-dimethyl-10-(5-methylfuran-2-yl)-7,8,9,10-tetrahydropyrimido[4,5-a]indolizine-2,4(1H,3H)-dione]"
3,1.45 µM,"Cn1c(=O)c2c(-c3cccc(C#N)c3)n3c(c2n(C)c1=O)C(c1nc(Cl)cs1)CCCC3 (single isomer, unassigned) [Example 31, 3-(11-(4-chlorothiazol-2-yl)-1,3-dimethyl-2,4-dioxo-2,3,4,7,8,9,10,11-octahydro-1H-pyrimido[4′,5′:3,4]pyrrolo[1,2-a]azepin-5-yl)benzonitrile]"
4,5.38 µM,"Cc1csc(-c2c3c(=O)n(C)c(=O)n(C)c3c3n2C[C@H](CN)S[C@H]3c2ccc(Cl)o2)n1 (single isomer, unassigned) [Example 19, 8-(aminomethyl)-10-(5-chlorofuran-2-yl)-1,3-dimethyl-5-(4-methylthiazol-2-yl)-7,8-dihydro-1H-pyrimido[4′,5′:3,4]pyrrolo[2,1-c][1,4]thiazine-2,4(3H,10H)-dione]"
5,1.39 µM,"Cc1csc(C2c3c4c(c(-c5cccc(C#N)c5)n3CC2(C)C)c(=O)n(C)c(=O)n4C)n1 (single isomer, unassigned) [Example 21.8, 3-(1,3,8,8-Tetramethyl-9-(4-methylthiazol-2-yl)-2,4-dioxo-2,3,4,7,8,9-hexahydro-1H-pyrimido[4,5-a]pyrrolizin-5-yl)benzonitrile]"
6,0.23 µM,"Cn1ccc(-c2c3c(=O)n(C)c(=O)n(C)c3c3n2C[C@H](CO)S[C@H]3c2ccc(Cl)o2)n1 (single isomer, unassigned) [Example 17.1, 10-(5-Chlorofuran-2-yl)-8-(hydroxymethyl)-1,3-dimethyl-5-(1-methyl-1H-pyrazol-3-yl)-7,8-dihydro-1H-pyrimido[4′,5′:3,4]pyrrolo[2,1-c][1,4]thiazine-2,4(3H,10H)-dione]"
7,0.27 µM,"Cn1c(=O)c2c(-c3cccc(C#N)c3)n3c(c2n(C)c1=O)C(c1nc(Cl)cs1)CC3 (single isomer, unassigned) [Example 20a, 3-(9-(4-chlorothiazol-2-yl)-1,3-dimethyl-2,4-dioxo-2,3,4,7,8,9-hexahydro-1H-pyrimido[4,5-a]pyrrolizin-5-yl)benzonitrile]"
8,0.05 µM,"Cn1c(=O)c2c(-c3cccc(F)c3)n3c(c2n(C)c1=O)[C@H](c1nc(Cl)cs1)C[C@@H](CO)C3 (single isomer, unassigned) [Example 23a, 10-(4-chlorothiazol-2-yl)-5-(3-fluorophenyl)-8-(hydroxymethyl)-1,3-dimethyl-7,8,9,10-tetrahydropyrimido[4,5-a]indolizine-2,4(1H,3H)-dione]"
9,0.33 µM,"Cn1c(=O)c2c(-c3ccccc3)n3c(c2n(C)c1=O)C(c1nc(Cl)cs1)C(C)(C)C3 (single isomer, unassigned) [Example 21a, 9-(4-chlorothiazol-2-yl)-1,3,8,8-tetramethyl-5-phenyl-8,9-dihydro-1H-pyrimido[4,5-a]pyrrolizine-2,4(3H,7H)-dione]"
10,0.07 µM,"Cn1c(=O)c2c(-c3cccc(C#N)c3)n3c(c2n(C)c1=O)[C@H](c1nc(Cl)cs1)CCC3 [Example 13a, (R)-3-(10-(4-chlorothiazol-2-yl)-1,3-dimethyl-2,4-dioxo-1,2,3,4,7,8,9,10-octahydropyrimido[4,5-a]indolizin-5-yl)benzonitrile]"
11,0.1 µM,"Cn1c(=O)c2c(-c3cccc(C#N)c3)n3c(c2n(C)c1=O)[C@H](c1nc(Cl)cs1)C[C@@H](CO)C3 (single isomer, unassigned) [Example 23.1a, 3-(10-(4-chlorothiazol-2-yl)-8-(hydroxymethyl)-1,3-dimethyl-2,4-dioxo-1,2,3,4,7,8,9,10-octahydropyrimido[4,5-a]indolizin-5-yl)benzonitrile]"
